Values after ≈ are worked out from the molar mass of the structure shown.
Key:
[1] = tested on: P. aeruginosa mutants EPIR1S, EPIR9S, EPIR20L, EPIR43; assay: MIC of antimicrobials in TXA09155-resistant mutants; type: cell-based, Pseudomonas aeruginosa; conditions: Pseudomonas aeruginosa
Method: All resistant colonies were verified by determining the MIC to TXA09155. […] This two-component system regulates the expression of more than 100 genes in P. aeruginosa, including genes that code for efflux components (mexX), and plays a role in the resistance to cationic antimicrobial peptides and aminoglycoside antibiotics.
(§1) MIC assays were performed as described previously.

[2] = tested on: 300 P. aeruginosa clinical isolates from 63 countries; assay: Susceptibility study, IHMA panel; type: cell-based, Pseudomonas aeruginosa; conditions: for Cumulative Susceptibility % Strains at 1: concentration 1 µg/ml; for Cumulative Susceptibility % Strains at 2: concentration 2 µg/ml; for Cumulative Susceptibility % Strains at 4: concentration 4 µg/ml; for Cumulative Susceptibility % Strains at 8: concentration 8 µg/ml; for Cumulative Susceptibility % Strains at 16: concentration 16 µg/ml; for Cumulative Susceptibility % Strains at 32: concentration 32 µg/ml; for Cumulative Susceptibility % Strains at >32: concentration >32 µg/ml
Description: (§2) First, 209 clinical isolates of P. aeruginosa were collected, unbiased of susceptibility, from three US hospitals by Micromyx (now part of Microbiologics; Kalamazoo, MI, USA). IHMA (Monthey, Switzerland) collected 300 P. aeruginosa clinical isolates, also unbiased of susceptibility, from the following 63 countries: Argentina, Australia, Belgium, Brazil, Canada, Chile, Colombia, Costa Rica, Croatia, Czech Republic, Denmark, Dominican Republic, Ecuador, France, Georgia, Germany, Greece, Guatemala, Hong Kong, Hungary, India, Ireland, Israel, Italy, Japan, Jordan, Kazakhstan, Kenya, South Korea, Kuwait, Latvia, Lebanon, Lithuania, Malaysia, Mexico, Morocco, Netherlands, New Zealand, Nigeria, Panama, Philippines, Poland, Portugal, Puerto Rico, Qatar, Romania, Russia, Saudi Arabia, Serbia, Slovenia, South Africa, Spain, Sweden, Switzerland, Taiwan, Thailand, Tunisia, Turkey, Ukraine, United Kingdom, United States, Venezuela, and Vietnam. Isolates came from the following types of infection: genitourinary (urine), gastrointestinal (stomach), gastrointestinal (pancreas), […] (wound), respiratory (sputum), […] (blood), respiratory (bronchoalveolar lavage), […] (burn), respiratory (endotracheal aspirate), bodily fluids (abscess/pus), […] (impetiginous lesions), gastrointestinal (abscess) and respiratory (bronchial brushing). CF patients were not excluded.
as §1

[3] = tested on: 209 P. aeruginosa clinical isolates from three US hospitals; assay: Susceptibility study, Micromyx panel; type: cell-based, Pseudomonas aeruginosa; conditions: for Cumulative Susceptibility % Strains at 1: concentration 1 µg/ml; for Cumulative Susceptibility % Strains at 2: concentration 2 µg/ml; for Cumulative Susceptibility % Strains at 4: concentration 4 µg/ml; for Cumulative Susceptibility % Strains at 8: concentration 8 µg/ml; for Cumulative Susceptibility % Strains at 16: concentration 16 µg/ml; for Cumulative Susceptibility % Strains at 32: concentration 32 µg/ml; for Cumulative Susceptibility % Strains at >32: concentration >32 µg/ml
Description: as §2, §1

[4] = tested on: P. aeruginosa K1455 (mexAB-oprM overexpressed); assay: microbe, parasite or virus in culture; type: cell-based, Pseudomonas aeruginosa; conditions: Pseudomonas aeruginosa, read-out: MICs K1455 (↑mexAB-oprM)
Description: P. aeruginosa ATCC 27853 was obtained from the American Type Culture Collection (ATCC; Manassas, VA, USA). P. aeruginosa multidrug-resistant isolates were obtained from the CDC and FDA Antibiotic Resistance Isolate Bank (Atlanta, GA, USA). P. aeruginosa DA7232 (gyrA-T83I, parC-S80L) was a kind gift from Prof. Dan I. Andersson, Uppsala University, Uppsala, Sweden, and has been characterized elsewhere. P. aeruginosa strains K767 (WT), K1455 (mexAB-oprM overexpressed), K2415 (mexXY-oprM overexpressed), and K3698 (oprM∆) were obtained from Prof. Keith Poole, Queen’s University, Kingston, Ontario, Canada and have been characterized elsewhere. Bacterial cells were grown in cation-adjusted Mueller Hinton (CAMH) media, brain heart infusion broth (BHI), or tryptic soy agar (TSA) plates were all obtained from Becton, Dickinson, and Company (BD; Franklin Lakes, NJ, USA). Aztreonam, ceftazidime, moxifloxacin, levofloxacin, minocycline, tigecycline, chloramphenicol, nitrocefin, and imipenem were purchased from TOKU-E (Bellingham, WA, USA). Azithromycin was purchased from Tokyo Chemical Industry (Portland, OR, USA). Cotrimoxazole was purchased from Toronto Research Chemicals (Toronto, ON, Canada). Doxycycline and polymyxin B were purchased from Sigma-Aldrich (St. Louis, MO, USA). Ethidium bromide (EtBr) and glucose were purchased from VWR (Radnor, PA, USA). MC-04,124 and TXA01182 were synthesized at TAXIS Pharmaceuticals. Carbonyl cyanide 3-chlorophenylhydrazone (CCCP) was purchased from Enzo Life Sciences (Farmingdale, NY, USA). DiOC2 (3) and propidium iodide were obtained from Thermo Fisher Scientific (Waltham, MA, USA).
as §1

hERG channel = hERG channel (Homo sapiens, UniProt Q12809); assay: hERG patch clamp assay (Q-Patch, CHO cell line); type: cell-based
Method: (§3) The metabolic stability of TXA09155 was determined in human, mouse, and rat liver microsomes by Eurofins (St. Charles, MO, USA) using the substrate depletion method (in vitro half-life (t1/2) method). Quantification was performed by LC/MS/MS. In this assay, depletion of the parent compound is measured over time to determine the compound’s in vitro t1/2 and hepatic extraction ratios (ER). This is used to predict metabolic clearance. […] This assay utilizes electrophysiology measurements on the electric current passing through the hERG channel heterologously expressed in a stable CHO cell line. Channels are open by a hERG-specific voltage protocol, and the compound effects are directly characterized by their block of the hERG current. The assay is performed on an automated platform, Q-Patch.

P. aeruginosa ATCC 27853 = assay: Intracellular ATP levels; type: cell-based, Pseudomonas aeruginosa; conditions: 1/4th and 1/8th MIC, 3 h
Method: P. aeruginosa intracellular ATP levels were determined as described previously using an ATP determination kit (catalog number A22066; Thermo Fisher Scientific, Waltham, MA, USA). […] After treatment, the cells were lysed in chloroform, which was subsequently removed by boiling at 80 °C. The persistent ATP from cell lysate was measured in a 96-well black flat-bottom plate and plotted as relative luminescence units. […] Error bars represent the standard deviation of triplicates.

[5] = CellTiterGlo cytotoxicity assay; type: cell-based; conditions: human, 293T cells
CYP3A4 = CYP3A4 (Homo sapiens, UniProt P08684); assay: CYP inhibition; type: in vitro ADME; conditions: read-out: CYP Inhibition IC50, CYP 3A4
[6] = tested on: P. aeruginosa ATCC 27853 inner membrane; assay: Flow cytometry propidium iodide (PI) assay for inner membrane permeabilization; type: cell-based, Pseudomonas aeruginosa; conditions: no inner membrane permeabilization below this concentration
Method: Membrane disruption was assayed with two approaches: (1) a flow cytometry-based propidium iodide (PI) assay to monitor inner membrane permeabilization, and (2) a nitrocefin (NCF) assay to monitor outer membrane permeabilization. NCF is a chromogenic cephalosporin that changes from yellow to red when the amide bond in the β-lactam ring is hydrolyzed by a β-lactamase. The rate of hydrolysis in intact cells is slow, as it is limited by the rate of diffusion of periplasmic β-lactamase across the outer membrane. However, in the presence of an agent that permeabilizes the outer membrane, the rate of hydrolysis will increase [33]. […] Polymyxin B was used as a positive control (Figure 2B). […] Cells whose membranes remain intact exclude PI and remain non-fluorescent, while cells with compromised membrane integrity allow PI to enter and bind to DNA, resulting in fluorescence.
A flow cytometry assay used for assessing potential inner membranes permeabilization of P. aeruginosa bacterial cells to PI was conducted using the LIVE/DEAD BacLight Kit from Invitrogen (Waltham, MA, USA). […] Intracellular PI fluorescence was detected by flow cytometry using a CytoFlex (Beckman Coulter Inc., Brea, CA, USA). […] For each sample, the fluorescence of 10,000 individual bacterial cells was measured, and the percent of cells that stained positive for PI fluorescence was calculated.

[7] = Metabolic stability in human liver microsomes; type: in vitro ADME
Method: as §3

[8] = n: 300, in combination TXA09155 fixed […]
[9] = n: 209, in combination TXA09155 fixed […]
[10] = TXA09155 fixed […], 300 isolates
[11] = TXA09155 fixed […], 209 isolates

Sequence of CYP3A4 (P08684 whole entry): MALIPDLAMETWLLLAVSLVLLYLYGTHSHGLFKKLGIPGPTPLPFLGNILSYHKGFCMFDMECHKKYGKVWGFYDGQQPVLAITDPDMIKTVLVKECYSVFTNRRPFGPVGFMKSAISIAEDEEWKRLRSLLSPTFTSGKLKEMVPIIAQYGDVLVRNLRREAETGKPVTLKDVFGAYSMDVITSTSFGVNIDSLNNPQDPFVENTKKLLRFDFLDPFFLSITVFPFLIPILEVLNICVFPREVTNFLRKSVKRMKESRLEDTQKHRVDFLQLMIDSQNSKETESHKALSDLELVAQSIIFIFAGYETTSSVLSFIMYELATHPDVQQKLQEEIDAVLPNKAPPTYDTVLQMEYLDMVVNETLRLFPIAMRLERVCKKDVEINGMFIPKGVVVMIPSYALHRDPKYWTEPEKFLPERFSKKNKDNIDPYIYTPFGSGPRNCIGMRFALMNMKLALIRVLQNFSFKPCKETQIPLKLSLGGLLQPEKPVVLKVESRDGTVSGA
Sequence of hERG channel (Q12809 whole entry): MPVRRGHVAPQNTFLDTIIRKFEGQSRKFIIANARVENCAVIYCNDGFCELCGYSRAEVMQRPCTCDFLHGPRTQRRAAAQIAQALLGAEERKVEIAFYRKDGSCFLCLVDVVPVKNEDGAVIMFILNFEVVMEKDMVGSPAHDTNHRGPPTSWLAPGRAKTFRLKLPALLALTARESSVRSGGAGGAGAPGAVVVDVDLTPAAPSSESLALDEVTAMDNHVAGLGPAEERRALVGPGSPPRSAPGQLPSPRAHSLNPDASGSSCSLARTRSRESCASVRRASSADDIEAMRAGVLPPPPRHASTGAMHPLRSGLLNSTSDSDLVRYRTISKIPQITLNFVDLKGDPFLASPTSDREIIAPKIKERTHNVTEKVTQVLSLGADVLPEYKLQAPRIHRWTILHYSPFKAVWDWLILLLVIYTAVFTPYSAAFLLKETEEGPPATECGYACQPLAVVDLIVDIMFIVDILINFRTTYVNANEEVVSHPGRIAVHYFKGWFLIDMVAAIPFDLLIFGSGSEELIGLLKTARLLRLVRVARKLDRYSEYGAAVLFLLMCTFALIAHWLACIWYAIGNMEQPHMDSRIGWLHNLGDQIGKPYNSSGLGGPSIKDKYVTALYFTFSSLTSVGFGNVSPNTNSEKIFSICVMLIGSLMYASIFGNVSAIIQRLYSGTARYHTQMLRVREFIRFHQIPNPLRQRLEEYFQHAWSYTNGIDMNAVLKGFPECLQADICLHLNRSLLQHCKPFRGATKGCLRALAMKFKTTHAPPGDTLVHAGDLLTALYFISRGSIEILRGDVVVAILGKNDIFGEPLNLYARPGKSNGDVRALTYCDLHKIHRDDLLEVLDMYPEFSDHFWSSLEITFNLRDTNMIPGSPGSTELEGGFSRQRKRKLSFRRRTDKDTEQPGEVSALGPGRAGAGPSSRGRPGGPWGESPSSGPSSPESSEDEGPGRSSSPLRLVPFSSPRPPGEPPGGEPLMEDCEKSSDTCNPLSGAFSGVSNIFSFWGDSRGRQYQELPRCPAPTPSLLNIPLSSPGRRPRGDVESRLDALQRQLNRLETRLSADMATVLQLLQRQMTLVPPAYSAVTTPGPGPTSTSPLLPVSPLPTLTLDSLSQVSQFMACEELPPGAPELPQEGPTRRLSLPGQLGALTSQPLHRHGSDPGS

SMILES | MIC ([1]; strain EPIR1S (phoQ-L175R)) [µg/mL] | MIC ([1]; strain EPIR9S (phoQ-L175R)) [µg/mL] | MIC ([1]; strain EPIR20L (phoQ-H248D)) [µg/mL] | Cumulative Susceptibility % Strains at 1 ([2]; n: 300) [%] | Cumulative Susceptibility % Strains at 2 ([2]; n: 300) [%] | Cumulative Susceptibility % Strains at 4 ([2]; n: 300) [%] | Cumulative Susceptibility % Strains at 8 ([2]; n: 300) [%] | Cumulative Susceptibility % Strains at 16 ([2]; n: 300) [%] | Cumulative Susceptibility % Strains at 32 ([2]; n: 300) [%] | Cumulative Susceptibility % Strains at >32 ([2]; n: 300) [%] | Cumulative Susceptibility % Strains at 1 ([3]; n: 209) [%] | Cumulative Susceptibility % Strains at 2 ([3]; n: 209) [%] | Cumulative Susceptibility % Strains at 4 ([3]; n: 209) [%] | Cumulative Susceptibility % Strains at 8 ([3]; n: 209) [%] | Cumulative Susceptibility % Strains at 16 ([3]; n: 209) [%] | Cumulative Susceptibility % Strains at 32 ([3]; n: 209) [%] | Cumulative Susceptibility % Strains at >32 ([3]; n: 209) [%] | also measured
C[C@H]1COc2c(N3CCN(C)CC3)c(F)cc3c(=O)c(C(=O)O)cn1c23 [Levofloxacin] | 1 | 1 | 1 | 69 | 78 | 83 | 84 | 89 | 95 | 100 | 58 | 68 | 78 | 86 | 93 | 98 | 100 | % R (percent resistant per breakpoints) ([2]; LVX ≤1S 2I ≥4R, n: 300): 22%; Cumulative Susceptibility % Strains at 0.5 ([2]; concentration 0.5 µg/ml, n: 300): 60%; Cumulative Susceptibility % Strains at 0.06 ([2]; concentration column 0.06 µg/ml, n: 300): 1%; MIC50 [2, 8]: 0.5 µg/mL; MIC90 [2, 8]: 32 µg/mL; % R (percent resistant per breakpoints) ([3]; LVX ≤1S 2I ≥4R, n: 209): 32%; Cumulative Susceptibility % Strains at 0.5 ([3]; concentration 0.5 µg/ml, n: 209): 47%; Cumulative Susceptibility % Strains at 0.12 ([3]; concentration column 0.12 µg/ml, n: 209): 2%; MIC50 [3, 9]: 1 µg/mL; MIC90 [3, 9]: 16 µg/mL; MIC [4]: 4 µg/mL (≈ 11.1 µM)
Cl.NC[C@@H]1CN[C@H](CNC(=O)c2cc3ccc(-c4ccc(F)cc4)cc3[nH]2)C1 [TXA09155, N-(((2S,4R)-4-(aminomethyl)pyrrolidine-2-yl)methyl)-6-(4-fluorophenyl)-1H-indole-2-carboxamide hydrochloride salt] | 200 | 100 | 200 | 2 | 6 | 7 | 7 | 9 | 13 | 100 | 2 | 2 | 3 | 6 | 9 | 36 | 100 | levofloxacin MIC50 in presence of TXA09155 [2, 10]: 0.06 µg/mL; levofloxacin MIC90 in presence of TXA09155 [2, 10]: 8 µg/mL; IC50 (hERG channel): 16 µM; ATP depletion (P. aeruginosa ATCC 27853): did not result in ATP depletion; levofloxacin MIC50 in presence of TXA09155 [3, 11]: 0.12 µg/mL; levofloxacin MIC90 in presence of TXA09155 [3, 11]: 2 µg/mL; IC50 [5]: > 40 µM; IC50 (CYP3A4): 28.5 µM; concentrations without inner membrane disruption (basal PI fluorescence) [6]: < 50 µg/mL; HLM and RLM Metabolic Stability (HLM) [7]: >60%

From PMC9220351, “Evaluation of a Conformationally Constrained Indole Carboxamide as a Potential Efflux Pump Inhibitor in Pseudomonas aeruginosa” (Antibiotics, 2022)
